Test results as given in PubChem BioAssay AID588437 (Southern Research Specialized Biocontainment Screening …, 2011).
Values joined by “and” are separate entries in the source; they are usually repeats but may differ in a detail not shown here. Equal values may be shown once. Results filed as inconclusive are left out. Active and inactive are the calls of the source. The rule behind the calls is not given here.

Columns and labels:
[1] = tested on: Mycobacterium tuberculosis H37Rv growth inhibition, no glycerol; assay: Mycobacterium tuberculosis h37rv growth inhibition in absence of glycerol, confirmatory dose response (AID 588437); settings: for IC50: measured here: IC50 growth inhibition replicates
[2] = as above; settings: Mycobacterium tuberculosis H37Rv growth inhibition, no glycerol

O=C(c1ccc(CNc2c(N3CCOCC3)c(=O)c2=O)cc1)N1CC=C(c2ccccc2)CC1
IC90 [1]: 15.4 µM | IC50 [1]: 4.83 µM

O=C(NCCc1ccc(Cl)cc1)c1ccc(CNc2c(N3CCOCC3)c(=O)c2=O)cc1
IC50 [1]: 11 µM and 11.2 µM

CCOC(=O)CSc1ncnc2c1cnn2-c1ccccc1
IC90 [1]: 47.7 µM | IC50 [1]: 30.2 µM

CCOC(=O)N1CCC(Nc2c(Nc3cccc(CC)c3)c(=O)c2=O)CC1
IC90 [1]: 85.3 µM | IC50 [1]: 65.1 µM

CC1CC(C)CN(C(=O)c2ccc(CNc3c(N4CCCC4)c(=O)c3=O)cc2)C1 (centres undefined)
IC50 [1]: 22.8 µM

O=C(c1ccc(CNc2c(N3CCCC3)c(=O)c2=O)cc1)N1CC=C(c2ccccc2)CC1
IC50 [1]: 12.5 µM and 8.13 µM

CC1CCN(C(=O)c2ccc(CNc3c(N4CCCC4)c(=O)c3=O)cc2)CC1
IC50 [1]: 20.3 µM

O=C(NCCc1ccc(Cl)cc1)C1CCC(CNc2c(N3CCCCC3)c(=O)c2=O)CC1 (centres undefined)
IC50 [1]: 22.4 µM

COC(=O)CSc1ncnc2c1cnn2-c1ccc(C)cc1C
IC90 [1]: 6.65 µM | IC50 [1]: 5.41 µM

Cc1cccc(N2CCN(C(=O)c3ccc(CNc4c(N5CCC(C)CC5)c(=O)c4=O)cc3)CC2C)c1 (centres undefined)
IC90 [1]: 51.8 µM | IC50 [1]: 40.9 µM

O=C(c1ccc(CNc2c(N3CCCC3)c(=O)c2=O)cc1)N1CCc2ccccc2C1
IC50 [1]: 13.4 µM

CC1CC(C)CN(C(=O)C2CCC(CNc3c(N4CCCCC4)c(=O)c3=O)CC2)C1 (centres undefined)
IC50 [1]: 26.9 µM and 35.5 µM

COc1ccc(N2CCN(C(=O)c3ccc(CNc4c(N5CCOCC5)c(=O)c4=O)cc3)CC2)cc1
IC50 [1]: 21.7 µM and 18.5 µM

CC1CCCN(C(=O)c2ccc(CNc3c(N4CCCCC4)c(=O)c3=O)cc2)C1 (centres undefined)
IC50 [1]: 14.1 µM

Cc1cccc(N2CCN(C(=O)c3ccc(CNc4c(N5CCC(C)CC5)c(=O)c4=O)cc3)CC2)c1C
outcome [2]: inactive

CC(C)OC(=O)CSc1ncnc2c1cnn2-c1ccccc1
IC50 [1]: 29.5 µM

CCC(C)NC(=O)CSc1nc2ccccc2c(=O)[nH]1 (centres undefined)
IC90 [1]: 4.01 µM | IC50 [1]: 2.98 µM

CC1CCCN(C(=O)C2CCC(CNc3c(N4CCCCC4)c(=O)c3=O)CC2)C1 (centres undefined)
IC50 [1]: 64.3 µM

O=C(C1CCC(CNc2c(N3CCCCC3)c(=O)c2=O)CC1)N1CCCCC1 (centres undefined)
IC50 [1]: 59.6 µM

CCOC(=O)CSc1ncnc2c1cnn2-c1ccc(C)cc1C
IC90 [1]: 7.19 µM | IC50 [1]: 5 µM

CC(=O)c1ccc(NC(=O)c2ccc(CNc3c(N4CCOCC4)c(=O)c3=O)cc2)cc1
IC50 [1]: > 98.8 µM

CCOc1ccc(NC(=O)c2ccc(CNc3c(N4CCCC4)c(=O)c3=O)cc2)cc1
outcome [2]: inactive
